Data from patent US20150105252A1, “SUBSTITUTED PYRAZOLES AS HERBICIDES” (E I DU PONT DE NEMOURS AND COMPANY, priority 2013, published 2015).

Tests used:
Assay in all cases: Test F preemergence
corn = type: in vivo, Zea mays
Description: (§1) Seeds of plant species selected from corn (Zea mays), soybean (Glycine max), velvetleaf (Abutilon theophrasti), lambsquarters (Chenopodium album), wild poinsettia (Euphorbia heterophylla), pigweed, palmer (palmer pigweed, Amaranthus palmeri), common waterhemp (Amaranthus rudis), surinam grass (Brachiaria decumbens), large crabgrass (Digitaria sanguinalis), crabgrass, Brazil (Brazilian crabgrass, Digitaria horizontalis), fall panicum (Panicum dichotomiflorum), giant foxtail (Setaria faberii), green foxtail (Setaria viridis), goosegrass (Eleusine indica), johnsongrass (Sorghum halepense), common ragweed (Ambrosia elation), barnyardgrass (Echinochloa crus-galli), southern sandbur (Cenchrus echinatus), arrowleaf sida (Sida rhombifolia), Italian ryegrass (Lolium multiflorum), dayflower, VA (Virginia (VA) dayflower, Commelina virginica), field bindweed (Convolvulus arvensis), cocklebur (common cocklebur, Xanthium strumarium), morningglory (Ipomoea coccinea), nightshade (eastern black nightshade, Solanum ptycanthum), kochia (Kochia scoparia), yellow nutsedge (Cyperus esculentus), and hairy beggarticks (Bidens pilosa), were planted into a silt loam soil and treated preemergence with test chemicals formulated in a non-phytotoxic solvent mixture which included a surfactant.
(§2) At the same time, plants from these crop and weed species and also horseweed (Canada horseweed, Conyza canadensis), smartweed (ladysthumb smartweed, Polygonum persicaria), waterhemp_RES1, (ALS & Triazine resistant common waterhemp, Amaranthus rudis), and waterhemp_RES2, (ALS & HPPD resistant common waterhemp, Amaranthus rudis) were treated with postemergence applications of test chemicals formulated in the same manner. Plants ranged in height from 2 to 18 cm for postemergence treatments (1- to 4-leaf stage). Treated plants and controls were maintained in a greenhouse for 14 to 21 days, after which time all species were compared to controls and visually evaluated. Plant response ratings, summarized in Table F, are based on a scale of 0 to 100 where 0 is no effect and 100 is complete control. A dash (-) response means no test result.

lambsquarters = type: in vivo, Chenopodium album
Description: as §1, §2

Surinam grass = type: in vivo, Brachiaria decumbens
Description: as §1, §2

fall panicum = type: in vivo, Panicum dichotomiflorum
Description: as §1, §2

giant foxtail = type: in vivo, Setaria faberii
Description: as §1, §2

barnyardgrass = type: in vivo, Echinochloa crus-galli
Description: as §1, §2

field bindweed = type: in vivo, Convolvulus arvensis
Description: as §1, §2

[1] = Preemergence, 31 g ai/ha, scale 0 to 100
[2] = Preemergence, 62 g ai/ha, scale 0 to 100
[3] = Preemergence, 125 g ai/ha, scale 0 to 100
[4] = preemergence, 8 g ai/ha, scale 0 to 100, 100 is complete control
[5] = preemergence, 16 g ai/ha, scale 0 to 100, 100 is complete control
[6] = Preemergence, 16 g ai/ha, scale 0 to 100
[7] = Preemergence, 250 g ai/ha, scale 0 to 100

SMILES: CCOc1cc(C(=O)NCC(F)(F)F)nn1Cc1ccnc(C(F)(F)F)c1 [Compound 104]
- Plant response rating, Corn (corn; [1]): 30
- Plant response rating, Corn (corn; [2]): 50
- Plant response rating, Corn (corn; [3]): 60
- Plant response rating, Corn (corn; [4]): 0
- Plant response rating, Corn (corn; [5]): 0
- Plant response rating, Lambsquarters (lambsquarters; [1]): 100
- Plant response rating, Lambsquarters (lambsquarters; [2]): 100
- Plant response rating, Lambsquarters (lambsquarters; [3]): 100
- Plant response rating, Lambsquarters (lambsquarters; [4]): 35
- Plant response rating, Lambsquarters (lambsquarters; [5]): 60
- Plant response rating, Surinam Grass (Surinam grass; [1]): 35
- Plant response rating, Surinam Grass (Surinam grass; [2]): 75
- Plant response rating, Surinam Grass (Surinam grass; [3]): 80
- Plant response rating, Surinam Grass (Surinam grass; [4]): 0
- Plant response rating, Surinam Grass (Surinam grass; [5]): 10
- Plant response rating, Fall Panicum (fall panicum; [1]): 90
- Plant response rating, Fall Panicum (fall panicum; [2]): 100
- Plant response rating, Fall Panicum (fall panicum; [3]): 100
- Plant response rating, Fall Panicum (fall panicum; [4]): 15
- Plant response rating, Fall Panicum (fall panicum; [5]): 85
- Plant response rating, Giant Foxtail (giant foxtail; [1]): 100
- Plant response rating, Giant Foxtail (giant foxtail; [2]): 100
- Plant response rating, Giant Foxtail (giant foxtail; [3]): 100
- Plant response rating, Giant Foxtail (giant foxtail; [4]): 25
- Plant response rating, Giant Foxtail (giant foxtail; [5]): 30
- Plant response rating, Barnyardgrass (barnyardgrass; [1]): 50
- Plant response rating, Barnyardgrass (barnyardgrass; [2]): 100
- Plant response rating, Barnyardgrass (barnyardgrass; [3]): 100
- Plant response rating, Barnyardgrass (barnyardgrass; [4]): 10
- Plant response rating, Barnyardgrass (barnyardgrass; [5]): 20
- Plant response rating, Field Bindweed (field bindweed; [1]): 30
- Plant response rating, Field Bindweed (field bindweed; [2]): 50
- Plant response rating, Field Bindweed (field bindweed; [3]): 95
- Plant response rating, Field Bindweed (field bindweed; [4]): 0
- Plant response rating, Field Bindweed (field bindweed; [5]): 10

SMILES: CCNC(=O)c1cc(CCCl)n(Cc2ccnc(C(F)(F)F)c2)n1 [Compound 179]
- Plant response rating, Corn (corn; [1]): 20
- Plant response rating, Corn (corn; [2]): 30
- Plant response rating, Corn (corn; [3]): 30
- Plant response rating, Corn (corn; [4]): 0
- Plant response rating, Lambsquarters (lambsquarters; [2]): 30
- Plant response rating, Lambsquarters (lambsquarters; [3]): 100
- Plant response rating, Surinam Grass (Surinam grass; [1]): 20
- Plant response rating, Surinam Grass (Surinam grass; [2]): 20
- Plant response rating, Surinam Grass (Surinam grass; [3]): 60
- Plant response rating, Surinam Grass (Surinam grass; [4]): 0
- Plant response rating, Fall Panicum (fall panicum; [1]): 35
- Plant response rating, Fall Panicum (fall panicum; [2]): 70
- Plant response rating, Fall Panicum (fall panicum; [3]): 98
- Plant response rating, Fall Panicum (fall panicum; [4]): 0
- Plant response rating, Giant Foxtail (giant foxtail; [1]): 25
- Plant response rating, Giant Foxtail (giant foxtail; [2]): 40
- Plant response rating, Giant Foxtail (giant foxtail; [3]): 98
- Plant response rating, Giant Foxtail (giant foxtail; [4]): 0
- Plant response rating, Barnyardgrass (barnyardgrass; [1]): 15
- Plant response rating, Barnyardgrass (barnyardgrass; [2]): 20
- Plant response rating, Barnyardgrass (barnyardgrass; [3]): 50
- Plant response rating, Barnyardgrass (barnyardgrass; [4]): 0
- Plant response rating, Field Bindweed (field bindweed; [1]): 5
- Plant response rating, Field Bindweed (field bindweed; [2]): 50
- Plant response rating, Field Bindweed (field bindweed; [3]): 75
- Plant response rating, Field Bindweed (field bindweed; [4]): 0

SMILES: CCNC(=O)c1cc(CC)n(Cc2ccnc(C(F)(F)F)c2)n1 [Compound 196]
- Plant response rating, Corn (corn; [2]): 0
- Plant response rating, Corn (corn; [3]): 25
- Plant response rating, Corn (corn; [4]): 0
- Plant response rating, Corn (corn; [5]): 0
- Plant response rating, Lambsquarters (lambsquarters; [2]): 98
- Plant response rating, Lambsquarters (lambsquarters; [3]): 100
- Plant response rating, Lambsquarters (lambsquarters; [4]): 0
- Plant response rating, Lambsquarters (lambsquarters; [5]): 5
- Plant response rating, Surinam Grass (Surinam grass; [2]): 25
- Plant response rating, Surinam Grass (Surinam grass; [3]): 70
- Plant response rating, Surinam Grass (Surinam grass; [4]): 0
- Plant response rating, Surinam Grass (Surinam grass; [5]): 0
- Plant response rating, Fall Panicum (fall panicum; [6]): 90
- Plant response rating, Fall Panicum (fall panicum; [2]): 98
- Plant response rating, Fall Panicum (fall panicum; [3]): 100
- Plant response rating, Fall Panicum (fall panicum; [4]): 0
- Plant response rating, Fall Panicum (fall panicum; [5]): 0
- Plant response rating, Giant Foxtail (giant foxtail; [2]): 70
- Plant response rating, Giant Foxtail (giant foxtail; [3]): 100
- Plant response rating, Giant Foxtail (giant foxtail; [4]): 0
- Plant response rating, Giant Foxtail (giant foxtail; [5]): 0
- Plant response rating, Barnyardgrass (barnyardgrass; [6]): 0
- Plant response rating, Barnyardgrass (barnyardgrass; [2]): 10
- Plant response rating, Barnyardgrass (barnyardgrass; [3]): 65
- Plant response rating, Barnyardgrass (barnyardgrass; [4]): 0
- Plant response rating, Barnyardgrass (barnyardgrass; [5]): 0
- Plant response rating, Field Bindweed (field bindweed; [6]): 20
- Plant response rating, Field Bindweed (field bindweed; [2]): 75
- Plant response rating, Field Bindweed (field bindweed; [3]): 85
- Plant response rating, Field Bindweed (field bindweed; [4]): 5
- Plant response rating, Field Bindweed (field bindweed; [5]): 10

SMILES: Cc1cc(C(=O)NC(C)C)nn1Cc1ccnc(C(F)(F)F)c1 [Compound 197]
- Plant response rating, Corn (corn; [2]): 0
- Plant response rating, Corn (corn; [3]): 20
- Plant response rating, Corn (corn; [4]): 0
- Plant response rating, Corn (corn; [5]): 0
- Plant response rating, Lambsquarters (lambsquarters; [2]): 35
- Plant response rating, Lambsquarters (lambsquarters; [3]): 80
- Plant response rating, Lambsquarters (lambsquarters; [4]): 0
- Plant response rating, Lambsquarters (lambsquarters; [5]): 35
- Plant response rating, Surinam Grass (Surinam grass; [2]): 20
- Plant response rating, Surinam Grass (Surinam grass; [3]): 20
- Plant response rating, Surinam Grass (Surinam grass; [4]): 0
- Plant response rating, Surinam Grass (Surinam grass; [5]): 0
- Plant response rating, Fall Panicum (fall panicum; [6]): 0
- Plant response rating, Fall Panicum (fall panicum; [2]): 70
- Plant response rating, Fall Panicum (fall panicum; [3]): 98
- Plant response rating, Fall Panicum (fall panicum; [4]): 0
- Plant response rating, Fall Panicum (fall panicum; [5]): 0
- Plant response rating, Giant Foxtail (giant foxtail; [2]): 20
- Plant response rating, Giant Foxtail (giant foxtail; [3]): 100
- Plant response rating, Giant Foxtail (giant foxtail; [4]): 0
- Plant response rating, Giant Foxtail (giant foxtail; [5]): 0
- Plant response rating, Barnyardgrass (barnyardgrass; [6]): 0
- Plant response rating, Barnyardgrass (barnyardgrass; [2]): 0
- Plant response rating, Barnyardgrass (barnyardgrass; [3]): 0
- Plant response rating, Barnyardgrass (barnyardgrass; [4]): 0
- Plant response rating, Barnyardgrass (barnyardgrass; [5]): 0
- Plant response rating, Field Bindweed (field bindweed; [6]): 35
- Plant response rating, Field Bindweed (field bindweed; [2]): 50
- Plant response rating, Field Bindweed (field bindweed; [3]): 80
- Plant response rating, Field Bindweed (field bindweed; [4]): 10
- Plant response rating, Field Bindweed (field bindweed; [5]): 15

SMILES: CCc1cc(C(=O)NC2CC2)nn1Cc1ccnc(OCC(F)(F)F)c1 [Compound 200]
- Plant response rating, Corn (corn; [7]): 35
- Plant response rating, Corn (corn; [2]): 0
- Plant response rating, Corn (corn; [3]): 0
- Plant response rating, Corn (corn; [5]): 0
- Plant response rating, Lambsquarters (lambsquarters; [7]): 98
- Plant response rating, Lambsquarters (lambsquarters; [2]): 65
- Plant response rating, Lambsquarters (lambsquarters; [3]): 70
- Plant response rating, Lambsquarters (lambsquarters; [5]): 0
- Plant response rating, Surinam Grass (Surinam grass; [7]): 95
- Plant response rating, Surinam Grass (Surinam grass; [2]): 5
- Plant response rating, Surinam Grass (Surinam grass; [3]): 65
- Plant response rating, Surinam Grass (Surinam grass; [5]): 0
- Plant response rating, Fall Panicum (fall panicum; [7]): 90
- Plant response rating, Fall Panicum (fall panicum; [6]): 0
- Plant response rating, Fall Panicum (fall panicum; [2]): 35
- Plant response rating, Fall Panicum (fall panicum; [3]): 80
- Plant response rating, Fall Panicum (fall panicum; [5]): 0
- Plant response rating, Giant Foxtail (giant foxtail; [7]): 40
- Plant response rating, Giant Foxtail (giant foxtail; [2]): 0
- Plant response rating, Giant Foxtail (giant foxtail; [3]): 5
- Plant response rating, Giant Foxtail (giant foxtail; [5]): 0
- Plant response rating, Barnyardgrass (barnyardgrass; [7]): 50
- Plant response rating, Barnyardgrass (barnyardgrass; [6]): 15
- Plant response rating, Barnyardgrass (barnyardgrass; [2]): 25
- Plant response rating, Barnyardgrass (barnyardgrass; [3]): 20
- Plant response rating, Barnyardgrass (barnyardgrass; [5]): 0
- Plant response rating, Field Bindweed (field bindweed; [7]): 60
- Plant response rating, Field Bindweed (field bindweed; [6]): 0
- Plant response rating, Field Bindweed (field bindweed; [2]): 0
- Plant response rating, Field Bindweed (field bindweed; [3]): 50
- Plant response rating, Field Bindweed (field bindweed; [5]): 0
